# In the supplement of paper PMC10307832:
# Assays:
# Assay in all cases: relative viability (nuclei count vs DMSO), 5 days (fraction); higher = more cells survive
# [1] = compound: CC1CC(=O)N(C2=CN=C(N=C2N1C3CCCC3)NC4=C(C=C(C=C4)C(=O)NC5CCN(CC5)C)OC)C [NPK76-II-72-1] + C[C@]1(O)C[C@@H](c2nc(-c3ccc4ccc(-c5ccccc5)nc4c3)c3c(N)nccn32)C1 [Linsitinib] (partner 1 µM)
# Procedure, shortened: (§1)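 A single step with final 0.05% Triton X-100, 1% formaldehyde and 1 ug/ml Hoechst fixed the cells and stained nuclei 5 days after treatment. Lung cancer cell lines in 1536-well plates had been treated by pin tool the day after seeding with one drug alone or a fixed anchor-drug dose plus five library-drug doses (not always all listed) in √10 steps, and nuclei were counted on 4× images. Relative viability is the ratio of nuclei in treated wells to nuclei in vehicle wells, taken as the median of duplicate plates.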
# [2] = compound: CC1CC(=O)N(C2=CN=C(N=C2N1C3CCCC3)NC4=C(C=C(C=C4)C(=O)NC5CCN(CC5)C)OC)C [NPK76-II-72-1] + N=C(N)NC(=N)NCCc1ccccc1 [Phenformin] (partner 250 µM)
# Procedure, shortened: as §1
# BI-2536 + Luminespib = compound: CC[C@@H]1C(=O)N(C)c2cnc(Nc3ccc(C(=O)NC4CCN(C)CC4)cc3OC)nc2N1C1CCCC1 [BI-2536] + CCNC(=O)c1noc(-c2cc(C(C)C)c(O)cc2O)c1-c1ccc(CN2CCOCC2)cc1 [Luminespib] (partner 0.01 µM)
# Procedure, shortened: as §1
# NPK76-II-72-1 + OSI-027 = compound: CC1CC(=O)N(C2=CN=C(N=C2N1C3CCCC3)NC4=C(C=C(C=C4)C(=O)NC5CCN(CC5)C)OC)C [NPK76-II-72-1] + COc1cccc2cc(-c3nc([C@H]4CC[C@H](C(=O)O)CC4)n4ncnc(N)c34)[nH]c12 [OSI-027] (partner 0.5 µM)
# Procedure, shortened: as §1
Cell Line,relative viability ([1]; first compound 0.01 µM),relative viability ([1]; first compound 0.03162 µM),relative viability ([1]; first compound 0.1 µM),relative viability ([1]; first compound 0.3162 µM),relative viability ([1]; first compound 1 µM),relative viability ([2]; first compound 0.01 µM),relative viability ([2]; first compound 0.03162 µM),relative viability ([2]; first compound 0.1 µM),relative viability ([2]; first compound 0.3162 µM),relative viability ([2]; first compound 1 µM),relative viability (BI-2536 + Luminespib; first compound 0.01 µM),relative viability (BI-2536 + Luminespib; first compound 0.03162 µM),relative viability (BI-2536 + Luminespib; first compound 0.1 µM),relative viability (BI-2536 + Luminespib; first compound 0.3162 µM),relative viability (BI-2536 + Luminespib; first compound 1 µM),relative viability (NPK76-II-72-1 + OSI-027; first compound 0.01 µM),relative viability (NPK76-II-72-1 + OSI-027; first compound 0.03162 µM),relative viability (NPK76-II-72-1 + OSI-027; first compound 0.1 µM),relative viability (NPK76-II-72-1 + OSI-027; first compound 0.3162 µM),relative viability (NPK76-II-72-1 + OSI-027; first compound 1 µM)
RERF-LC-KJ,0.902,0.876,0.802,0.771,0.923,0.405,0.416,0.425,0.388,0.52,1.28,0.614,0.26,0.306,0.303,0.63,0.636,0.651,0.525,0.628
NCI-H23,0.546,0.701,–,0.592,0.552,0.752,0.788,0.684,0.718,0.85,0.231,0.212,0.182,0.225,0.236,0.649,0.649,0.568,0.585,0.71
EMC-BAC-2,0.814,0.848,0.848,0.747,0.793,0.521,0.546,0.54,0.55,0.634,1.22,1.19,1.08,0.251,0.22,0.372,0.351,0.391,0.361,0.415
NCI-H2405,0.88,1.01,0.905,0.819,1.08,0.379,0.386,0.4,0.35,0.419,0.599,0.435,0.359,0.283,0.31,0.64,0.672,0.633,0.627,0.67
NCI-H358,0.742,0.773,0.854,0.412,0.784,0.324,0.382,0.32,–,0.372,0.414,0.283,0.398,0.127,0.0998,0.703,0.812,1,–,0.916
NCI-H1944,1.16,1.09,1.21,1.06,1.28,0.197,0.197,0.198,0.187,0.211,0.694,0.794,0.863,0.107,0.136,0.422,0.44,0.364,0.369,0.541
EPLC-272H,0.973,1.15,1.28,1.05,1.18,0.304,–,0.259,0.229,0.343,0.293,0.166,0.153,0.102,0.0894,0.307,–,0.287,0.235,0.305
NCI-H1915,1.11,1.1,1.11,1.07,1.14,0.363,0.39,0.363,0.34,0.357,0.848,0.379,0.219,0.0675,0.0811,0.616,0.708,0.659,0.584,0.654
